Assays:
Assay type in all cases: in vivo
Myzus persicae [1] = assay: Activity against Myzus persicae (green peach aphid), feeding/contact activity, sunflower leaf discs; conditions: Myzus persicae, foliar, 144 h, application rate 200 ppm; feeding/contact; 6 days after infestation
Method: Example B4: Activity Against Myzus persicae (Green Peach Aphid) Feeding/Contact Activity
(§1) Sunflower leaf discs were placed on agar in a 24-well microtiter plate and sprayed with aqueous test solutions prepared from 10′000 ppm DMSO stock solutions. After drying, the leaf discs were infested with an aphid population of mixed ages. The samples were assessed for mortality 6 days after infestation.

[2] = test system: Frankliniella occidentalis; assay: Activity against Frankliniella occidentalis (western flower thrips), sunflower leaf discs; conditions: foliar, 168 h, application rate 200 ppm, mixed ages, 7 days after infestation
Method: Example B8: Activity Against Frankliniella occidentalis (Western Flower Thrips)
as §1, with “in” for “in a”, “plates” for “plate”, “[…]” for “10′000 ppm”, “drying” for “drying,”, “a Frankliniella” for “an aphid”, “7” for “6”

Tetranychus urticae = assay: Activity against Tetranychus urticae (two-spotted spider mite), bean leaf discs; conditions: foliar, 192 h, application rate 200 ppm, mixed population (mobile stages), 8 days after infestation
Method: Example B10: Activity Against Tetranychus urticae (Two-Spotted Spider Mite)
Bean leaf discs on agar in 24-well microtiter plates were sprayed with aqueous test solutions prepared from 10′000 ppm DMSO stock solutions. After drying the leaf discs were infested with a mite population of mixed ages. The samples were assessed for mortality on mixed population (mobile stages) 8 days after infestation.

Plutella xylostella [3] = assay: Activity against Plutella xylostella (diamond back moth), artificial diet, eggs; conditions: 192 h, application rate 200 ppm, 8 days after infestation, read-out: effect in at least one of the two categories (mortality or growth inhibition)
Method in brief: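 Artificial diet in wells treated with aqueous dilutions of 10′000 ppm DMSO stocks, dried, then infested with Plutella eggs. Mortality and growth inhibition scored against untreated samples 8 days after infestation.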

Diabrotica balteata = assay: Activity against Diabrotica balteata (corn root worm), maize sprouts; conditions: 96 h, application rate 200 ppm, L2 larvae, 4 days after infestation, read-out: effect in at least one of the two categories (mortality or growth inhibition)
Method: Example B3: Activity Against Diabrotica Balteata (Corn Root Worm)
Maize sprouts placed onto an agar layer in 24-well microtiter plates were treated with aqueous test solutions prepared from 10′000 ppm DMSO stock solutions by spraying. After drying, the plates were infested with L2 larvae (6 to 10 per well). The samples were assessed for mortality and growth inhibition in comparison to untreated samples 4 days after infestation.

Euschistus heros = assay: Activity against Euschistus heros (neotropical brown stink bug), soybean leaf; conditions: 120 h, application rate 200 ppm, N-2 nymphs, 5 days after infestation, read-out: effect in at least one of the two categories (mortality or growth inhibition)
Method: Example B7: Activity Against Euschistus heros (Neotropical Brown Stink Bug)
Soybean leaf on agar in 24-well microtiter plates were sprayed with aqueous test solutions prepared from 10′000 ppm DMSO stock solutions. After drying the leaf were infested with N-2 nymphs. The samples were assessed for mortality and growth inhibition in comparison to untreated samples 5 days after infestation.

Bemisia tabaci = assay: Activity against Bemisia tabaci (cotton white fly), cotton leaf discs; conditions: foliar, 144 h, application rate 200 ppm, adult white flies, 6 days after incubation
Method: Example B6: Activity Against Bemisia tabaci (Cotton White Fly)
Cotton leaf discs were placed on agar in 24-well microtiter plates and sprayed with aqueous test solutions prepared from 10′000 ppm DMSO stock solutions. After drying the leaf discs were infested with adult white flies. The samples were checked for mortality 6 days after incubation.

Myzus persicae [4] = assay: Activity against Myzus persicae (green peach aphid), systemic activity, pea seedlings; conditions: Myzus persicae, 144 h, test rate 24 ppm; systemic; 6 days after placing seedlings in test solutions
Method: Example B5: Activity Against Myzus persicae (Green Peach Aphid) Systemic Activity
Roots of pea seedlings infested with an aphid population of mixed ages were placed directly in the aqueous test solutions prepared from 10′000 DMSO stock solutions. The samples were assessed for mortality 6 days after placing seedlings in test solutions.

Plutella xylostella [5] = assay: Activity against Plutella xylostella (diamond back moth), artificial diet, L2 larvae; conditions: 120 h, application rate 200 ppm, 5 days after infestation, read-out: effect in at least one of the two categories (mortality or growth inhibition)
Method: Example B2: Activity Against Plutella xylostella (Diamond Back Moth)
24-well microtiter plates with artificial diet were treated with aqueous test solutions prepared from 10′000 ppm DMSO stock solutions by pipetting. After drying, the plates were infested with L2 larvae (10 to 15 per well). The samples were assessed for mortality and growth inhibition in comparison to untreated samples 5 days after infestation.

Spodoptera littoralis = assay: Activity against Spodoptera littoralis (Egyptian cotton leaf worm), cotton leaf discs; conditions: foliar, 72 h, application rate 200 ppm, L1 larvae, 3 days after infestation, read-out: control (mortality, anti-feeding effect or growth inhibition)
Method in brief: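 Cotton leaf discs on agar sprayed with aqueous test solutions made from 10′000 ppm DMSO stocks, dried, then infested with five L1 larvae. Mortality, anti-feeding and growth inhibition scored versus untreated samples 3 days after infestation; control given when any category exceeds untreated.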

CCS(=N)(=O)c1cc(OC(C)(C)C#N)cnc1-c1cn2cnc(SC(F)(F)F)cc2n1 (racemic) [Compound P7, 2-[[5-(ethylsulfonimidoyl)-6-[7-(trifluoromethylsulfanyl)imidazo[1,2-c]pyrimidin-2-yl]-3-pyridyl]oxy]-2-methyl-propanenitrile]
≥ 80%: mortality at 200 ppm (Myzus persicae [1]) | mortality at 200 ppm [2] | mortality at 200 ppm (Tetranychus urticae) | percent effect (mortality or growth inhibition) at 200 ppm (Plutella xylostella [3]) | percent effect (mortality or growth inhibition) at 200 ppm (Diabrotica balteata) | percent effect (mortality or growth inhibition) at 200 ppm (Euschistus heros) | mortality at 200 ppm (Bemisia tabaci)

CCS(=N)(=O)c1cc(OC(C)(C)C#N)cnc1-c1nc2cc(C(F)(F)F)ncc2n1C (racemic) [Compound P13, 2-[[5-(ethylsulfonimidoyl)-6-[3-methyl-6-(trifluoromethyl)imidazo[4,5-c]pyridin-2-yl]-3-pyridyl]oxy]-2-methyl-propanenitrile]
≥ 80%: mortality at 24 ppm (Myzus persicae [4]) | mortality at 200 ppm (Myzus persicae [1]) | mortality at 200 ppm (Tetranychus urticae) | percent effect (mortality or growth inhibition) at 200 ppm (Plutella xylostella [5]) | percent control (mortality, anti-feedant effect or growth inhibition) at 200 ppm (Spodoptera littoralis) | percent effect (mortality or growth inhibition) at 200 ppm (Diabrotica balteata) | percent effect (mortality or growth inhibition) at 200 ppm (Euschistus heros) | mortality at 200 ppm (Bemisia tabaci)
